Measured values: patent publication US20220267390A1, “MPS MODIFIED PEPTIDES AND USE THEREOF” (The Regents of the University of California, priority 2019, published 2022)
Where a SMILES comes first, the peptide text is derived from it. Where no end group is shown, it is not given here. [ ]: non-standard residue; d: D form.

Test system: H1650 cells
Assay type: cell-based
Method: IC50 (half maximal inhibitory concentration; μM) values in lung cancer cells. […] The residues marked in red/bold are D-isoforms of amino acids (SEQ ID NOS: 57, 48-54, 40-42 45 and 47 in order of appearance).
Molecular basis of MPS peptide and its potential for increasing nintedanib efficacy. […] A kinetic assay confirmed that this peptide binds PIP2 with a dissociation constant of 17.64 nM (FIG. 10B). As expected, a decrease of PIP3 pools in whole cell lysates of MPS-treated IPF fibroblasts was observed (FIG. 10C), supporting the notion that MPS peptide is able to inhibit AKT activation through trapping PIP2. In view of adverse effects of the current IPF therapeutic nintedanib^9, 10, there is an urgent clinical need to improve the efficacy of such treatment in IPF. Since the TGF-β receptor is not a direct target of nintedanib, targeting an element of TGF-β signaling in tandem with nintedanib administration circumvents the shortcomings of nintedanib monotherapy. […] Based on the above observations, it is assumed that TGF-β-directed phospho-MARCKS is a bypass mechanism of activating PI3K/AKT signaling (FIG. 11B); therefore, it seems reasonable that MARCKS inhibition by MPS treatment may improve nintedanib efficacy, permitting lower doses of nintedanib to be used. To this end, the possibility of a synergistic interaction between MPS and nintedanib in order to circumvent the shortcomings of nintedanib monotherapy was tested. […] Furthermore, the Chou and Talalay CI (combination index) method^25 was used to evaluate the therapeutic interactions between nintedanib and MPS peptide. […] Particularly, the values were lower than 1 at ED50, approximately 1 at ED75, and above 1 at ED90 (data not shown). Thus, the combination effect was dose-dependently correlated with the components, and therefore low dose nintedanib in combination with low dose of MPS presents a synergistic effect on cell proliferation. […] On the basis of the sequences of MPS peptide, the rearrangement of PIP2-binding sites in this peptide were designed and synthesized with the intention of enhancing the efficacy and stability of the MPS peptide. FIG. 13 lists the sequences of various MPS derivatives. In light of the cleavage sites of various proteases and PIP2 binding motifs, Applicant replaced some L-isoform amino acids with D-isoform and these peptides were named as MPS-12042 and MPS-22026. To further validate the efficacy of the above MPS derivatives, Applicant performed a dose-course analysis of H1650 cells undergoing each MPS derivative treatment.

| Compound | IC50 |
| --- | --- |
| KKKKKAFSFKKSFKLSGFSFKKNKK [MPS-11006] | 79 µM |
| Ac-KKKKKRFSFKKSFKLSGFSFKKNKK-NH2 [MPS-11200] | 78 µM |
| KKKKFAFGAFALKKFAFRKKKNKK [MPS-21026] | 49 µM |
| KKKKKRFSFKKSFKLSGFSFKANKK [MPS-11022] | 83 µM |
| FSFGSFSLKKFSFRKKKNKK [MPS-21010] | 83 µM |
| KKKKKRFSFAKSFKLSGFSFKKNKK [MPS-11010] | 73 µM |
| KKKKFSFGSFSLKKFSFRKKKNKK [MPS-21020] | 64 µM |
| KKAKKRFSFKKSFKLSGFSFKKNKK [MPS-11003] | 85 µM |
| CC(C)C[C@@H](NC(=O)[C@@H](C)NC(=O)[C@@H](Cc1ccccc1)NC(=O)[C@@H](C)NC(=O)CNC(=O)[C@@H](Cc1ccccc1)NC(=O)[C@H](C)NC(=O)[C@@H](Cc1ccccc1)NC(=O)[C@H](CCCCN)NC(=O)[C@H](CCCCN)NC(=O)[C@H](CCCCN)NC(=O)[C@H](CCCCN)NC(=O)[C@@H](N)CCCCN)C(=O)N[C@@H](CCCCN)C(=O)N[C@H](CCCCN)C(=O)N[C@H](Cc1ccccc1)C(=O)N[C@@H](C)C(=O)N[C@H](Cc1ccccc1)C(=O)N[C@H](CCCNC(=N)N)C(=O)N[C@H](CCCCN)C(=O)N[C@@H](CCCCN)C(=O)N[C@@H](CCCCN)C(=O)N[C@@H](CC(N)=O)C(=O)N[C@H](CCCCN)C(=O)N[C@@H](CCCCN)C(=O)O [MPS-22026] (H-KKKKK[dF]A[dF]G[dA][dF][dA][dL]K[dK][dF]A[dF][dR][dK]KKN[dK]K-OH; N-terminus and C-terminus assumed) | 11 µM |
| KKKKKRFSFKASFKLSGFSFKKNKK [MPS-11011] | 29 µM |
| AKKKKRFSFKKSFKLSGFSFKKNKK [MPS-11001] | 85 µM |
